The numbers were not newly measured in patent US20080311191A1, “Multi-Layer Tablets and Bioadhesive Dosage Forms” (priority 2004, published 2008), which cites them from elsewhere.

Structures are written as SMILES. Where two headings read alike, the source gives them in different places.

Experiment in data set [1]: not given
The source holds these as a separate data set.

For `Nc1nc2c(ncn2COCCO)c(=O)[nH]1` [Acyclovir, acyclovir], the water solubility result was “moderate”.
Turning to `CCC(C)n1ncn(-c2ccc(N3CCN(c4ccc(OCC5COC(Cn6cncn6)(c6ccc(Cl)cc6Cl)O5)cc4)CC3)cc2)c1=O` (stereo not shown) [Itraconazole, itraconazole], in data set [1], the GI permeability entry is reported as “good” and the water solubility entry is “negligible”. Moreover, in data set [1] (pH<3.5), the “solubility in water at pH<3.5” value was “slightly soluble”.
